Assay results as given in publication PMC10011554, “BET inhibitor trotabresib in heavily pretreated patients with solid tumors and diffuse large B-cell lymphomas” (Nature Communications, 2023).

Assay: Adverse events, DLTs, MTD and RP2D in phase I study CC-90010-ST-001 (NCI CTCAE v4.03)
Type: in vivo
Procedure: The primary endpoints of the study were the safety and tolerability of trotabresib, as well as the MTD and/or RP2D of trotabresib. Safety was assessed using the National Cancer Institute Common Terminology Criteria for Adverse Events v4.03[53].
The decision to evaluate additional subjects within a dose cohort, a higher dose cohort, intermediate dose cohorts, smaller dose increments, alternate dosing schedules, or declare an MTD will also be determined by the SRC, based on their review of clinical and laboratory safety […]
7.2.4. Definition of a Subject Evaluable for DLT
After the first dose is administered in any cohort during dose escalation, subjects in each cohort […]
more than one subject per day will be enrolled in a given dose escalation cohort.
A subject evaluable for DLT is defined as one that: […]
without experiencing a DLT,
Subjects non-evaluable for DLT will be replaced. Additional subjects within any dose cohort may be enrolled at the discretion of the SRC. Intra-subject dose escalation will not be allowed during the DLT assessment period.
7.2.5. Definition of Maximum Tolerated Dose (MTD) […]
of MTD is described in Section 7.2.2.
A variable dose cohort (eg, less frequent dosing) may be evaluated to accurately determine the MTD at the discretion of the SRC.
7.2.6. Definition of Dose-Limiting Toxicity (DLT) […]
used as a guide for the grading of severity of adverse events. A DLT is defined as any of the following toxicities occurring within the DLT assessment unless the event can clearly be […]
Do se-limiting toxicities are described below:
• Hyperglycemia meeting any of the following criteria:
− Grade 3 or greater fasting hyperglycemia (> 250 mg/dL) lasting > 4 days despite optimal medical treatment
(1 picture or pasted object on this page, not shown here)
− Hyperglycemia associated with diabetic ketoacidosis or nonketotic hyperosmolar coma regardless of glucose level
− Hyperglycemia that necessitates dose reduction despite dose interruption and resolution to ≤ grade 1 hyperglycemia within two weeks as described in […]
• Any Grade 4 non-hematologic toxicity of any duration
• Any non-hematologic toxicity Grade ≥ 3 EXCEPT for:
− Grade 3 diarrhea, nausea, or vomiting of ≤ 3 days duration (with optimal medical […]
− Grade 3 rash of the acneiform, pustular or maculopapular type which resolves to […]
level with resumption of study drug at the same dose (with optimal medical […]
− Grade 3 fatigue which resolves to Grade ≤ 2 within 7 days of study drug […]
the same dose (with optimal medical management).
• Hematological toxicities as follows:
− Grade 4 neutropenia lasting > 7 days
− Grade 4 thrombocytopenia lasting > 7 days, Grade ≥ 3 thrombocytopenia with clinically significant bleeding
• Any AE, Grade ≥ 2 not specified or exempt above, unless clearly determined to be unrelated to the drug, necessitating dose-level reduction during Cycle 1.
Isolated laboratory changes without associated clinical signs or symptoms (eg, hypomagnesemia, hypermagnesemia, hypoalbuminemia, hypophosphatemia, lymphocyte count increased or decreased) may not be included in this definition. These findings will be discussed and reviewed […]
7.2.7. Criteria for Dose Escalation in the Next Cohort of Subjects
During Part A, the dose escalation criteria are described in Section 7.2.2.
7.2.8. Definition of Stopping Criteria
During Part A, the dose escalation stopping rules are in Section 7.2.2.
7.2.9. Permitted Study Drug Adjustments
Dose reductions are permitted in any cycle, including Cycle 1.
• Dose reductions that occur in Cycle 1 during dose escalation will constitute DLT as […]

[1] = part C, cycles 1 and 2, fasted state (n = 39)
[2] = part C, cycles 1 and 2, fed state (n = 35)

## Cn1cc(-c2cc(S(C)(=O)=O)ccc2OCC2CC2)c2ccccc2c1=O [trotabresib]
Part B DLBCL, grade 4
  TRAE: Hypertension: 0%
  TRAE: Hyponatremia: 0%
  TRAE: Hypophosphatemia: 0%
  TRAE: Nausea: 0%
  TRAE: Neutropenia: 13.04%
  TRAE: Platelet count decreased: 0%
  TRAE: Stomatitis: 0%
  TRAE: Thrombocytopenia: 60.87%
  TRAE: Vomiting: 0%
Part B R/R DLBCL (N = 23)
  grade 3/4 TRAE anemia: 26%
  grade 3/4 TRAE neutropenia: 26%
  grade 3/4 TRAE thrombocytopenia: 78%
  patients who died due to TEAEs not considered related to study treatment: 9%
  patients with any-grade TRAEs: 100%
  patients with grade 3/4 TRAEs: 91%
  patients with serious TRAEs: 30%
Part B R/R DLBCL population
  further grade 3 and 4 TRAEs reported in one patient each: Grade 3 abdominal infection, blood bilirubin increased, pneumonia and grade 4 blood creatinine increased, febrile neutropenia, leukopenia, and lymphopenia
Part C (N = 41)
  TEAE leading to death, not considered related: one
  grade 3/4 TRAE thrombocytopenia: 17%
  patients with any-grade TRAEs: 98%
  patients with grade 3/4 TRAEs: 59%
Part C population
  further grade 3 TRAEs reported in one patient each: Grade 3 gamma-glutamyl transferase increased, hyperamylasemia, and syncope
Part C, any grade
  TRAE: ALT increased: 21.95%
  TRAE: Anemia: 12.2%
  TRAE: Any TRAE: 97.56%
  TRAE: Asthenia: 41.46%
  TRAE: Decreased appetite: 34.15%
  TRAE: Dehydration: 0%
  TRAE: Dermatitis acneiform: 17.07%
  TRAE: Diarrhoea: 60.98%
  TRAE: Dysgeusia: 53.66%
  TRAE: Fatigue: 26.83%
  TRAE: Hyperglycemia: 19.51%
  TRAE: Hypertension: 4.88%
  TRAE: Hyponatremia: 2.44%
  TRAE: Hypophosphatemia: 4.88%
  TRAE: Nausea: 60.98%
  TRAE: Neutropenia: 12.2%
  TRAE: Platelet count decreased: 0%
  TRAE: Stomatitis: 56.1%
  TRAE: Thrombocytopenia: 63.41%
  TRAE: Vomiting: 43.9%
[1]
  patients with any-grade TRAEs: 95%
  patients with grade 3/4 TRAEs: 33%
[2]
  patients with any-grade TRAEs: 91%
  patients with grade 3/4 TRAEs: 20%
Part C, grade 3
  TRAE: ALT increased: 2.44%
  TRAE: Anemia: 0%
  TRAE: Any TRAE: 56.1%
  TRAE: Asthenia: 7.32%
  TRAE: Decreased appetite: 0%
  TRAE: Dehydration: 0%
  TRAE: Dermatitis acneiform: 0%
  TRAE: Diarrhoea: 4.88%
  TRAE: Dysgeusia: 0%
  TRAE: Fatigue: 7.32%
  TRAE: Hyperglycemia: 4.88%
  TRAE: Hypertension: 2.44%
  TRAE: Hyponatremia: 2.44%
  TRAE: Hypophosphatemia: 4.88%
  TRAE: Nausea: 4.88%
  TRAE: Neutropenia: 4.88%
  TRAE: Platelet count decreased: 0%
  TRAE: Stomatitis: 4.88%
  TRAE: Thrombocytopenia: 14.63%
  TRAE: Vomiting: 2.44%
Part C, grade 4
  TRAE: ALT increased: 0%
  TRAE: Anemia: 0%
  TRAE: Any TRAE: 2.44%
  TRAE: Asthenia: 0%
  TRAE: Decreased appetite: 0%
  TRAE: Dehydration: 0%
  TRAE: Dermatitis acneiform: 0%
  TRAE: Diarrhoea: 0%
  TRAE: Dysgeusia: 0%
  TRAE: Fatigue: 0%
  TRAE: Hyperglycemia: 0%
  TRAE: Hypertension: 0%
  TRAE: Hyponatremia: 0%
  TRAE: Hypophosphatemia: 0%
  TRAE: Nausea: 0%
  TRAE: Neutropenia: 0%
  TRAE: Platelet count decreased: 0%
  TRAE: Stomatitis: 0%
  TRAE: Thrombocytopenia: 2.44%
  TRAE: Vomiting: 0%
Whole study
  grade 5 TRAEs: No grade 5 TRAEs were reported
